Measurements from ChEMBL document CHEMBL1201862, “PubChem BioAssay data set” (2004).
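Results reflect a 48-hour exposure of cells in 96-well plates to compound at five concentrations. GI50 is the concentration that inhibits growth by half.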 Activity calls are given as the source filed them. Cut-off read from the data, not from the text of the source: active = GI50 up to about 1.1 µM and inactive = higher.

What was measured:
Experiment in all cases: NCI tumour cell line growth inhibition, 48 h
HCC 2998 = system: HCC 2998
SR = system: SR
HL-60 = system: HL-60
UO-31 = system: UO-31
RPMI-8226 = system: RPMI-8226
ACHN = system: ACHN
UACC-62 = system: UACC-62
OVCAR-8 = system: OVCAR-8
SK-MEL-28 = system: SK-MEL-28
COLO 205 = system: COLO 205
LOX IMVI = system: LOX IMVI
SW-620 = system: SW-620
UACC-257 = system: UACC-257
A498 = system: A498
OVCAR-4 = system: OVCAR-4
CAKI-1 = system: CAKI-1
NCI-H23 = system: NCI-H23
MDA-MB-231 = system: MDA-MB-231
Hs-578T = system: Hs-578T
MDA-N = system: MDA-N

Measured: GI50

CCC(=O)OC1CCn2c1nc1c2C(=O)C(C)=C(NC(C)=O)C1=N (centres undefined)
inactive: HCC 2998 3.4 µM | SR 2 µM | UO-31 2.2 µM | RPMI-8226 2.06 µM | ACHN 1.77 µM | UACC-62 1.32 µM | SK-MEL-28 2.05 µM | COLO 205 1.72 µM | UACC-257 1.24 µM | A498 1.82 µM | OVCAR-4 1.35 µM | NCI-H23 1.77 µM
active: HL-60 0.774 µM | OVCAR-8 1.04 µM | LOX IMVI 0.755 µM | SW-620 0.916 µM | CAKI-1 0.653 µM

O=C1CC(c2ccc(O)cc2)C2(O1)C(=O)OC(C(O)CO)C2O (centres undefined)
inactive: MDA-MB-231 > 100 µM | HL-60 > 100 µM | UO-31 > 100 µM | RPMI-8226 > 100 µM | ACHN > 100 µM | UACC-62 > 100 µM | OVCAR-8 > 100 µM | SK-MEL-28 > 100 µM | Hs-578T > 100 µM | COLO 205 > 100 µM | LOX IMVI > 100 µM | SW-620 > 100 µM | UACC-257 > 100 µM | A498 > 100 µM | CAKI-1 > 100 µM | NCI-H23 > 100 µM

Cn1cc2ccccc2c1-c1nc(F)nc(OCC(=O)[C@H]2CCC3[C@@H]4CCC5=CC(=O)CC[C@]5(C)C4[C@@H](O)C[C@@]32C)n1 (some centres undefined)
inactive: HCC 2998 25.6 µM | SR 2.86 µM | HL-60 6.27 µM | UO-31 19.6 µM | RPMI-8226 6.61 µM | ACHN 17.7 µM | UACC-62 17.1 µM | OVCAR-8 7.13 µM | SK-MEL-28 11.2 µM | COLO 205 20 µM | LOX IMVI 4.66 µM | SW-620 8.04 µM | UACC-257 18.8 µM | A498 17.3 µM | OVCAR-4 14.9 µM | CAKI-1 3.92 µM | NCI-H23 7.78 µM

CCSCCCSCCSCC
inactive: HCC 2998 > 100 µM | MDA-MB-231 > 100 µM | HL-60 26.4 µM | UO-31 > 100 µM | MDA-N > 100 µM | UACC-62 > 100 µM | OVCAR-8 > 100 µM | SK-MEL-28 > 100 µM | COLO 205 > 100 µM | LOX IMVI > 100 µM | SW-620 > 100 µM | UACC-257 > 100 µM | OVCAR-4 81.5 µM | NCI-H23 > 100 µM

CC(=O)Oc1ccc(-c2c(OC(C)=O)c(OC(C)=O)c(-c3ccc(OC(C)=O)c(OC(C)=O)c3)c(OC(C)=O)c2OC(C)=O)cc1
inactive: SR 23.9 µM | MDA-MB-231 18.6 µM | HL-60 22.9 µM | UO-31 15.5 µM | MDA-N 16.9 µM | RPMI-8226 16.3 µM | ACHN 16.4 µM | UACC-62 17.8 µM | OVCAR-8 14.6 µM | SK-MEL-28 14.8 µM | COLO 205 17.7 µM | LOX IMVI 16.1 µM | SW-620 14.9 µM | UACC-257 15.1 µM | A498 20.1 µM | OVCAR-4 17.6 µM | CAKI-1 21.3 µM | NCI-H23 19 µM

O=C(/C=C/c1ccc([N+](=O)[O-])o1)N1CCN(Cc2ccccc2)CC1
inactive: HCC 2998 15.7 µM | SR 13 µM | HL-60 2.56 µM | UO-31 17.3 µM | RPMI-8226 10.5 µM | ACHN 14.7 µM | UACC-62 6.82 µM | OVCAR-8 12.2 µM | SK-MEL-28 4.89 µM | LOX IMVI 12.6 µM | SW-620 7.08 µM | UACC-257 7.89 µM | A498 15.7 µM | OVCAR-4 15.6 µM | CAKI-1 8.17 µM | NCI-H23 5.93 µM

CN(C)C(=O)CC(C(=O)O)c1c[nH]c2ccccc12 (centres undefined)
active: UO-31 0.0895 µM
inactive: HCC 2998 > 100 µM | SR > 100 µM | HL-60 > 100 µM | RPMI-8226 > 100 µM | ACHN > 100 µM | UACC-62 > 100 µM | OVCAR-8 > 100 µM | COLO 205 > 100 µM | LOX IMVI > 100 µM | SW-620 > 100 µM | UACC-257 > 100 µM | A498 > 100 µM | OVCAR-4 > 100 µM | CAKI-1 > 100 µM | NCI-H23 > 100 µM

Cc1n[nH]c(=O)n1/N=C/c1c[nH]c2ccccc12
inactive: HCC 2998 > 100 µM | SR > 100 µM | MDA-MB-231 > 100 µM | UO-31 > 100 µM | RPMI-8226 > 100 µM | ACHN > 100 µM | UACC-62 > 100 µM | OVCAR-8 > 100 µM | SK-MEL-28 > 100 µM | COLO 205 > 100 µM | SW-620 > 100 µM | UACC-257 > 100 µM | A498 > 100 µM | OVCAR-4 > 100 µM | CAKI-1 > 100 µM | NCI-H23 80.5 µM

COc1ccc2[nH]c3c4c(cc(-c5ccccc5)c3c2c1)C(=O)N(c1ccccc1)C4=O
active: OVCAR-4 0.411 µM
inactive: HCC 2998 > 100 µM | SR 1.77 µM | HL-60 38.5 µM | UO-31 28.5 µM | RPMI-8226 > 60 µM | ACHN > 41.5 µM | UACC-62 21.7 µM | OVCAR-8 6.05 µM | SK-MEL-28 37.9 µM | COLO 205 17.7 µM | LOX IMVI 16.1 µM | SW-620 11.4 µM | UACC-257 35.3 µM | A498 > 45.6 µM | CAKI-1 27 µM | NCI-H23 31.9 µM

COc1cc2c(c(OC)c1)C(=O)C(=O)C(CC1(C)OCCCO1)=C2
inactive: HCC 2998 16.4 µM | SR 3.3 µM | HL-60 1.85 µM | UO-31 12.7 µM | RPMI-8226 3.56 µM | ACHN 6.61 µM | UACC-62 7.91 µM | OVCAR-8 11.5 µM | SK-MEL-28 15.2 µM | COLO 205 3.49 µM | LOX IMVI 5.01 µM | SW-620 1.79 µM | UACC-257 14.1 µM | A498 17.2 µM | OVCAR-4 6.22 µM | CAKI-1 5.43 µM | NCI-H23 9.12 µM

CCCCC(C)(C/C=C/[C@@H]1[C@@H](C(O)CCCCCC(=O)OC)C(=O)C[C@H]1O[Si](C)(C)C(C)(C)C)O[Si](C)(C)C (some centres undefined)
inactive: HCC 2998 > 100 µM | SR 25.3 µM | MDA-MB-231 > 100 µM | UO-31 33.7 µM | RPMI-8226 31.2 µM | ACHN 86.5 µM | UACC-62 91.8 µM | OVCAR-8 > 100 µM | SK-MEL-28 77.4 µM | COLO 205 > 100 µM | LOX IMVI 45.3 µM | SW-620 59.3 µM | UACC-257 62.1 µM | OVCAR-4 86.7 µM | CAKI-1 38.4 µM | NCI-H23 > 100 µM

O=C1/C(=C/c2cccc3ccccc23)Cc2ccccc21
inactive: HCC 2998 15.5 µM | SR 57.3 µM | HL-60 28.4 µM | UO-31 22.1 µM | RPMI-8226 51.9 µM | ACHN 36.5 µM | UACC-62 22.4 µM | OVCAR-8 53.8 µM | SK-MEL-28 32.8 µM | Hs-578T 22 µM | LOX IMVI 34.4 µM | SW-620 31.6 µM | A498 37 µM | OVCAR-4 22.3 µM | CAKI-1 25.6 µM | NCI-H23 17.1 µM

COC(=O)c1c2cccccc-2c(Cc2c3cccccc-3c(C(=O)OC)c2O)c1O
inactive: HCC 2998 > 100 µM | SR > 100 µM | HL-60 > 100 µM | UO-31 > 100 µM | RPMI-8226 > 100 µM | ACHN > 100 µM | UACC-62 > 100 µM | OVCAR-8 > 100 µM | SK-MEL-28 > 100 µM | COLO 205 > 100 µM | LOX IMVI > 100 µM | SW-620 > 100 µM | UACC-257 > 100 µM | A498 > 100 µM | OVCAR-4 > 100 µM | CAKI-1 > 100 µM | NCI-H23 > 100 µM

COc1ccc2sc(-n3nc4ccccc4c3Nc3nc4ccc(OC)cc4s3)nc2c1
inactive: HCC 2998 1.43 µM | SR 23.4 µM | MDA-MB-231 2.07 µM | UO-31 7.16 µM | ACHN 2.6 µM | UACC-62 2.95 µM | OVCAR-8 1.29 µM | SK-MEL-28 7.67 µM | Hs-578T 1.46 µM | COLO 205 14.9 µM | LOX IMVI 5.47 µM | SW-620 7.5 µM | UACC-257 4.1 µM | OVCAR-4 1.86 µM | CAKI-1 1.28 µM | NCI-H23 1.73 µM
active: RPMI-8226 0.887 µM | A498 0.873 µM

COC(=O)C1(C(=O)OC)CC2=C(S(=O)(=O)c3ccccc3)C[C@@H](C#N)[C@H]2C1
inactive: HCC 2998 16 µM | MDA-MB-231 > 100 µM | HL-60 > 100 µM | UO-31 > 100 µM | MDA-N > 100 µM | ACHN > 100 µM | OVCAR-8 > 100 µM | SK-MEL-28 > 100 µM | COLO 205 > 100 µM | LOX IMVI > 100 µM | SW-620 > 100 µM | UACC-257 > 100 µM | A498 > 100 µM | OVCAR-4 > 100 µM | CAKI-1 > 100 µM | NCI-H23 > 100 µM

CCOc1cc2c(cc1OC)c[n+](C)c1c3cc(OC)c(OC)cc3ccc21
inactive: HCC 2998 > 100 µM | SR 46.6 µM | HL-60 17.2 µM | UO-31 > 100 µM | RPMI-8226 40.7 µM | ACHN > 100 µM | UACC-62 > 91 µM | OVCAR-8 > 60.3 µM | SK-MEL-28 > 64.1 µM | COLO 205 31.6 µM | LOX IMVI 46.6 µM | SW-620 46.5 µM | UACC-257 > 61.4 µM | A498 47.6 µM | OVCAR-4 > 100 µM | CAKI-1 > 67.8 µM | NCI-H23 > 93.5 µM
